Here are results for 3 compounds from paper PMC9693575, “Isopropyl Amino Acid Esters Ionic Liquids as Vehicles for Non-Steroidal Anti-Inflammatory Drugs in Potential Topical Drug Delivery Systems with Antimicrobial Activity” (International Journal of Molecular Sciences, 2022).

Series [1] in a line: Thermogravimetric analysis (thermal stability). The note with it: for TDTGmax, maximum decomposition temperature: DTG, air atmosphere, 10 °C min−1. The method, then:
The thermal stabilities of the obtained NSAIDs isopropyl ester amino acid salts were investigated. […] The beginning of thermal degradation was evaluated based on the value of onset of the TG curve, which occurs in the first phase of the process. […]
Thermogravimetric analysis (TG)
Thermogravimetric analysis was carried out using Netzsch Proteus Thermal Analy- […]
Samples of 5–8 mg were loaded in Al2O3 […]
ment was performed in an air atmosphere (25 cm3min−1) with nitrogen flow (10 cm3min−1) […]
Differential scanning calorimetry (DSC)
Phase transformation temperatures were determined on a PerkinElmer DSC-7 (Rot-gau, Germany). The samples of 3–5 mg were loaded on the aluminum pan with a crimped lid. Measurements were carried out in a nitrogen atmosphere (20 cm3 min-1). The rate of heating/cooling was 5°C min-1. […]
tained for 30 min inside the furnace, then cooled to 0°C to condition the sample and the crucible. After that, heating was conducted to the specified temperature, followed by cool-ing. Unless otherwise stated, two complete cycles of heating and cooling were performed.
The specified maximum temperature was individual for each compound, determined from TG analysis, and it was at least 10°C lower than the onset decomposition tempera-ture. Temperatures reported from DSC data are curve peaks, the melting points being endothermic upon heating and crystallization point being exothermic upon cooling. Lead, indium, tin, and zinc were used as standards to calibrate the temperature. Indium was used for enthalpy measurement calibration. […]

Another series has as its system Escherichia coli. Briefly: Disc diffusion antimicrobial susceptibility test, Escherichia coli. It counts as cell-based. Also on record: key to Inhibition diameter: -: no growth of the organism. The method, then: (§1) The plates were incubated for 24 h at 37 °C.
For the next series, the system named is Micrococcus Luteus. The series is described as follows: Disc diffusion antimicrobial susceptibility test, Micrococcus luteus. The following applies: for zone of inhibition at 25000 µg/mL / zone of inhibition at 50000 µg/mL / zone of inhibition at 100000 µg/mL / zone of inhibition at 200000 µg/mL / zone of inhibition at 400000 µg/mL / zone of inhibition at 600000 µg/mL / zone of inhibition at 800000 µg/mL: Micrococcus luteus, 24 h, read-out: Inhibition diameter. The format is cell-based. Also noted: key to Inhibition diameter: -: no growth of the organism. In general terms: Agar diffusion results depend on both activity and mobility in agar.

In series [2] the test system is Staphylococcus epidermidis. Briefly: Disc diffusion antimicrobial susceptibility test, Staphylococcus epidermidis. Also on record: key to Inhibition diameter: -: no growth of the organism. It counts as cell-based. The method, then: as §1
Where [3] appears, read: solution transferred to disc 25 mg cm^−3.
Setting [4] is: solution transferred to disc 50 mg cm^−3.
Where [5] appears, read: solution transferred to disc 100 mg cm^−3.
Setting [6] is: solution transferred to disc 200 mg cm^−3.
Setting [7] is: solution transferred to disc 400 mg cm^−3.
Where [8] appears, read: solution transferred to disc 600 mg cm^−3.
Where [9] appears, read: solution transferred to disc 1000 mg cm^−3.
The mark [10] stands for this setting: solution transferred to disc 800 mg cm^−3.

As to `CC(C)Cc1ccc(C(C)C(=O)O)cc1` (racemic) [IBU, (R,S)-ibuprofen, reference compound], in series [1], the “TTGonset, the onset of the thermal degradation” value (shortened to “TTGonset, the onset”) stood at 186.2 °C. In series [1], the “TDTGmax, maximum decomposition temperature” value came to 218.8 °C. For the same compound, the Inhibition diameter entry in the series on Escherichia coli (setting [3]), in the series on Escherichia coli (setting [4]), in the series with Escherichia coli (setting [5]), in the series on Escherichia coli (setting [6]), with Escherichia coli (setting [7]) and in the series on Escherichia coli (setting [8]) was “-” each time. The Inhibition diameter entry in the series with Escherichia coli (setting [9]) is “-”. Further, the zone of inhibition at 25000 µg/mL is 8.6 ± 0.3 mm with Micrococcus Luteus (setting [3]) and 10.8 ± 0.3 mm in series [2] (Staphylococcus epidermidis, 24 h, solution transferred to disc 25 mg cm^−3, read-out: Inhibition diameter). In addition, the zone of inhibition at 50000 µg/mL with Micrococcus Luteus (setting [4]) came out at 9.4 ± 0.2 mm; in series [2] (Staphylococcus epidermidis, 24 h, solution transferred to disc 50 mg cm^−3, read-out: Inhibition diameter), 11.5 ± 0.3 mm. The zone of inhibition at 100000 µg/mL came to 9.7 ± 0.2 mm in the series with Micrococcus Luteus (setting [5]) and 14.9 ± 0.3 mm in series [2] (Staphylococcus epidermidis, 24 h, solution transferred to disc 100 mg cm^−3, read-out: Inhibition diameter). The zone of inhibition at 200000 µg/mL in the series on Micrococcus Luteus (setting [6]) amounted to 10.2 ± 0.1 mm; in series [2] (Staphylococcus epidermidis, 24 h, solution transferred to disc 200 mg cm^−3, read-out: Inhibition diameter), 15.3 ± 0.3 mm. The zone of inhibition at 400000 µg/mL in the series with Micrococcus Luteus (setting [7]) was determined as 10.6 ± 0.1 mm; in series [2] (Staphylococcus epidermidis, 24 h, solution transferred to disc 400 mg cm^−3, read-out: Inhibition diameter) it was 16.4 ± 0.2 mm. Also, the zone of inhibition at 600000 µg/mL in the series with Micrococcus Luteus (setting [8]) amounted to 11.5 ± 0.2 mm; in series [2] (Staphylococcus epidermidis, 24 h, solution transferred to disc 600 mg cm^−3, read-out: Inhibition diameter), 17.6 ± 0.2 mm. In addition, the zone of inhibition at 800000 µg/mL was determined as 12.7 ± 0.2 mm with Micrococcus Luteus (setting [10]) and 18.6 ± 0.2 mm in series [2] (Staphylococcus epidermidis, 24 h, solution transferred to disc 800 mg cm^−3, read-out: Inhibition diameter).
With `COc1ccc2cc([C@H](C)C(=O)O)ccc2c1` [NAP, S-(+)-naproxen, reference compound], in series [1], the “TTGonset, the onset” value is 224.5 °C. Also, the “TDTGmax, maximum decomposition temperature” value in series [1] was 284.0 °C. Moreover, the Inhibition diameter entry with Escherichia coli (setting [3]), in the series on Escherichia coli (setting [4]), in the series with Escherichia coli (setting [5]), with Escherichia coli (setting [6]), in the series with Escherichia coli (setting [7]) and with Escherichia coli (setting [8]) was “-” throughout. The Inhibition diameter entry (with Escherichia coli (setting [9]); in series [2] (setting [3]); in series [2] (setting [4]); in series [2] (setting [5]); in series [2] (setting [6]); in series [2] (setting [7])) was “-” throughout. Besides, the Inhibition diameter entry in series [2] (setting [8]), in series [2] (setting [10]) and in series [2] (setting [9]) was “-” each time. In addition, the zone of inhibition at 25000 µg/mL in the series with Micrococcus Luteus (setting [3]) amounted to 6.2 ± 0.1 mm. Also, the zone of inhibition at 50000 µg/mL in the series on Micrococcus Luteus (setting [4]) stood at 6.4 ± 0.1 mm. The zone of inhibition at 100000 µg/mL in the series on Micrococcus Luteus (setting [5]) was 6.7 ± 0.1 mm. Also, in the series with Micrococcus Luteus (setting [6]), the zone of inhibition at 200000 µg/mL came out at 6.8 ± 0.1 mm. Also, the zone of inhibition at 400000 µg/mL in the series with Micrococcus Luteus (setting [7]) turned out to be 7.3 ± 0.2 mm. Besides, the zone of inhibition at 600000 µg/mL in the series with Micrococcus Luteus (setting [8]) worked out at 7.6 ± 0.2 mm. In addition, in the series with Micrococcus Luteus (setting [10]), the zone of inhibition at 800000 µg/mL is 8.5 ± 0.2 mm.
As for `COc1ccc2cc([C@H](C)C(=O)O)ccc2c1.CSCC[C@H](N)C(=O)OC(C)C` [[L-MetOiPr][NAP], L-methionine isopropyl ester naproxenate], the “TTGonset, the onset” value in series [1] turned out to be 149.6 °C. Moreover, in series [1], the “TDTGmax, maximum decomposition temperature” value amounted to 293.2 °C. The Inhibition diameter entry in the series with Escherichia coli (setting [3]) was “-”; in the series on Escherichia coli (setting [4]), “-”; with Escherichia coli (setting [5]) it was “-”; with Escherichia coli (setting [6]), 6.4 ± 0.3 mm; in the series with Escherichia coli (setting [7]) it was 7.1 ± 0.1 mm; with Escherichia coli (setting [8]), 7.3 ± 0.2 mm. The Inhibition diameter in the series with Escherichia coli (setting [9]) is 7.7 ± 0.2 mm; in the series on Micrococcus Luteus (setting [3]), “-”; with Micrococcus Luteus (setting [4]), “-”; in the series with Micrococcus Luteus (setting [5]) it was “-”; in the series on Micrococcus Luteus (setting [6]) it was “-”; in the series with Micrococcus Luteus (setting [7]) it was 6.4 ± 0.1 mm. Also, the Inhibition diameter with Micrococcus Luteus (setting [8]) was 7.1 ± 0.2 mm; with Micrococcus Luteus (setting [10]) it was 7.5 ± 0.1 mm; in the series on Micrococcus Luteus (setting [9]) it was 7.8 ± 0.2 mm; in series [2] (setting [3]), “-”; in series [2] (setting [4]), “-”; in series [2] (setting [5]) it was “-”. Besides, the Inhibition diameter entry in series [2] (setting [6]) is on record as “-”; in series [2] (setting [7]) it was “-”; in series [2] (setting [8]) it was “-”; in series [2] (setting [10]) it was “-”; in series [2] (setting [9]), 7.5 ± 0.3 mm.
